Among the data in BindingDB's records for doi:10.1021/ml5002954 (Uppsala University, 2014) are IC50 and Ki values, retold here.

The IC50 is the concentration that gives 50% inhibition. The Ki is a measure of affinity in units of concentration, obtained from inhibition or displacement. The low end stands for tighter binding, the high end for weaker binding.

The target in assay [1] is Substance P 1-7 binding site. Nature of the assay: Displacement of [3H]-SP1-7 from SP1-7 binding site by scintillation counting analysis.
Assay [2] addresses Substance P 1-7 binding site. Nature of the assay: Binding affinity to SP1-7 binding site.

The structures appear in SMILES notation.

As for `O=C(N[C@@H](Cc1ccccc1)c1nnc(-c2ccccc2)o1)OCc1ccccc1`, the IC50 in assay [1] was determined as 9 nM. In other words, the single-digit nanomolar range. For `N#CNC(=O)[C@H](Cc1ccccc1)NC(=O)OCc1ccccc1`, the IC50 in assay [1] was 17 nM.

The molecule `NC(=O)[C@H](Cc1ccccc1)NC(=O)OCc1ccccc1` registered an inhibitory constant (Ki) in assay [2] of 5.2 nM. Further, in assay [1], the IC50 was 6.2 nM and the inhibition constant Ki was 5.2 nM. `O=C(N[C@@H](Cc1ccccc1)C(=O)NNC(=O)c1ccccc1)OCc1ccccc1` registered an IC50 in assay [1] of 6.5 nM. This lies in the single-digit nanomolar range.
